Results as given in patent US4191698A, “Tricyclopentyltin fluoride” (priority 1977, dated 1980).

How the values were obtained:
Format in all cases: in vivo
wheat [1] = assay: Phytotoxicity to host plant in wheat leaf rust test (rating 0-2); set-up: key: 0: indicates no phytotoxicity; 1: indicates that the degree of phytotoxicity was sufficient to make the plant commercially worthless; 2: indicates that the plant was killed; conditions: 300 ppm
Experimental: (§1) The efficacy of tricyclopentyltin fluoride as a control agent for three different plant fungi (grape downy mildew, apple powdery mildew and wheat leaf rust) was evaluated and compared with the performance of several other tricyclopentyltin compounds. The results of this evaluation are disclosed in the following tables 2, 3 and 4. The phytotoxicity of the various compounds tested was also evaluated at various concentration levels. […] Quantitative ratings for phytotoxicity are given in each of the first three tables. A rating of 0 indicates no phytotoxicity.
(§2) Host plants, (grape, wheat or apple, depending upon the fungus) are sprayed with a water suspension of the test compound and then inoculated with the pathogen. A number of control plants that have not been sprayed are also inoculated. After disease symptoms are well developed on the untreated control plants the test plants are graded for disease control.

wheat [2] = assay: Phytotoxicity applied to wheat (scale 0-5); set-up: key: 0: no phytotoxicity; 1: very slight injury, the minimum that could be observed; 2: less than 10% of leaf surface injured; 3: 10-50% of leaf surface injured; 4: 50-90% of leaf surface injured; 5: plant killed
Experimental: (§3) The phytotoxicity of a number of tricyclopentyltin compounds and triphenyltin hydroxide on grape vines, wheat and barley was evaluated quantitatively using the following scale:
(§4) If the rating was considered to be somewhere between two integers based on observations of other plants, the lower integer followed by "0.5" was employed as the rating.

grape = assay: Phytotoxicity to host plant in grape downy mildew test (rating 0-2); set-up: key to Phytotoxicity: 0: indicates no phytotoxicity; 1: indicates that the degree of phytotoxicity was sufficient to make the plant commercially worthless; 2: indicates that the plant was killed; conditions: for Phytotoxicity: rating 0-2
Experimental: as §1, §2

Grape Vines = assay: Phytotoxicity applied to grape vines (scale 0-5); set-up: key to Phytotoxicity: 0: no phytotoxicity; 1: very slight injury, the minimum that could be observed; 2: less than 10% of leaf surface injured; 3: 10-50% of leaf surface injured; 4: 50-90% of leaf surface injured; 5: plant killed; conditions: for Phytotoxicity: scale 0-5
Experimental: as §3, §4

Barley = assay: Phytotoxicity applied to barley (scale 0-5); set-up: key: 0: no phytotoxicity; 1: very slight injury, the minimum that could be observed; 2: less than 10% of leaf surface injured; 3: 10-50% of leaf surface injured; 4: 50-90% of leaf surface injured; 5: plant killed
Experimental: as §3, §4

[3] = system: Apple Powdery Mildew (Podosphaera leucotricha); assay: Apple powdery mildew control (Procedure 3)
Description: (§5) PROCEDURE 3--Employed Using Grape Downy Mildew (Plasmopara viticola), Wheat Leaf Rust (Puccinia recondita) and Apple Powdery Mildew (Podosphaera leucotricha)
as §2

[4] = system: Grape Downy Mildew (Plasmopara viticola); assay: Grape downy mildew control (Procedure 3)
Description: as §5, §2

[5] = system: Wheat Leaf Rust (Puccinia recondita); assay: Wheat leaf rust control (Procedure 3); conditions: 300 ppm
Description: as §5, §2

Row | Molecule | Phytotoxicity (wheat [1]) | Phytotoxicity (wheat [2]; 75 ppm) | Phytotoxicity (wheat [2]; 300 ppm) | Phytotoxicity (wheat [2]; 1200 ppm) | Phytotoxicity (grape; 75 ppm) | Phytotoxicity (grape; 300 ppm) | Phytotoxicity (Grape Vines; 75 ppm) | Phytotoxicity (Grape Vines; 300 ppm) | Phytotoxicity (Grape Vines; 1200 ppm) | Phytotoxicity (Barley; 38 ppm) | Phytotoxicity (Barley; 150 ppm) | Phytotoxicity (Barley; 600 ppm) | % Control ([3]; 75 ppm) [%] | also measured
1 | [Cl][Sn]([CH]1CCCC1)([CH]1CCCC1)[CH]1CCCC1 [Tricyclopentyltin chloride] | 2 | 1 | 3 (10-50% of leaf surface injured) | 5 |  |  |  |  |  |  |  |  |  | 
2 | [OH][Sn]([CH]1CCCC1)([CH]1CCCC1)[CH]1CCCC1 [Tricyclopentyltin hydroxide] | 0 | 0 | 1 | 2.5 | 0 | 1 | 1 | 2.5 | 4.5 | 1 | 2 (less than 10% of leaf surface injured) | 3.5 |  | 
3 | Tricyclopentyltin phenoxide |  |  |  |  |  |  |  |  |  |  |  |  | 50 | % Control ([3]; 300 ppm): 83%
4 | [OH][Sn]([c]1ccccc1)([c]1ccccc1)[c]1ccccc1 [Triphenyltin hydroxide] | 0 |  |  |  | 1 | 1 | 2.5 | 3.5 | 5 | 1 | 3 (10-50% of leaf surface injured) | 4 (50-90% of leaf surface injured) | 25 | % Control ([4]; 75 ppm): 95%; control rating (comparison in words) ([4]; 75 ppm): higher control rating at this level; % Control ([4]; 300 ppm): 100%; % Control [5]: 25%; phytotoxicity (in words) (grape; 75 ppm): too phytotoxic to be commercially useful
5 | [F][Sn]([CH]1CCCC1)([CH]1CCCC1)[CH]1CCCC1 [Tricyclopentyltin fluoride] | 0 | 0 | 0 | 1.5 | 0 | 0 | 0 | 1.5 | 3.5 | 0 | 1 | 2 (less than 10% of leaf surface injured) |  | control rating (comparison in words) ([4]; 75 ppm): higher than the two other tricyclopentyltin compounds; activity against representative plant fungi (comparison in words) ([4]; representative plant fungi of Tables 2-4): highest activity against representative plant fungi of all the compounds tested; efficacy (comparison in words) ([3]; 75 ppm): considerably higher than the other compounds tested; control of wheat leaf rust (in words) [5]: effectively controlled wheat leaf rust; phytotoxic effects (in words) (grape; 300 ppm): did not produce any phytotoxic effects; damage to plants (comparison in words) (Grape Vines; Tables 5-7: grape vines, wheat and barley): least damaging to the plants
6 | Tricyclopentyltin acetate |  |  |  |  |  |  | 2 (less than 10% of leaf surface injured) | 4 (50-90% of leaf surface injured) | 5 | 1 | 2 (less than 10% of leaf surface injured) | 3.5 | 25 | 
7 | Tricyclopentyltin benzoate |  |  |  |  | 0 | 1 |  |  |  |  |  |  |  | % Control ([4]; 75 ppm): 50%; % Control ([4]; 300 ppm): 75%
